Ends that are not written are not given here.

One experiment concerns survivin mRNA. As to the kind of experiment: Real-time qPCR of survivin mRNA in C2C12 cells. Conditions: C2C12 cells in low serum media, 20 μM peptide, 6 h. Type of experiment: cell-based, mouse. The method, then: (§1) Total RNA was extracted from cells using TRIzol (Invitrogen). Synthesis of cDNA was performed with 1 μg of total RNA at 50° C. for 50 min using oligo(dT) primers and reverse transcriptase (Superscript III; Invitrogen). Briefly, quantification of cDNA was performed in the LightCycler (Roche, Mannheim, Germany) using the DNA Master SYBR Green I kit (Roche) with the following cycling conditions: initial denaturation at 95° C. for 10 min, followed by 40 cycles at 95° C. for 10 s, 60° C. for 10 s, and 72° C. for 10 s and a 5-min terminal incubation at 72° C. The data were calculated with AACt. The expression was then normalized against the expression of glyceraldehyde-3-phosphate dehydrogenase (GAPDH). The PCR primers were mouse Survivin sense, 5′-[…]-3′ (SEQ ID NO: 27), anti-sense, 5′-[…]-3′ (SEQ ID NO: 28) (accession number: NM_001012273.1; PCR product: 136 bp); mouse GAPDH sense, 5′-[…]-3′ (SEQ ID NO: 29), anti-sense, 5′-[…]-3′ (SEQ ID NO: 30) (NM_001289726.1; 149 bp). For analysis rabbit inflammatory gene expression, The PCR primers were rabbit TNF-αsense, 5′-[…]-3′ (SEQ ID NO: 31), anti-sense, 5′-[…]-3′ (SEQ ID NO: 32) (accession number: NM 001082263.1); rabbit IL-1βsense, 5′-[…]-3′(SEQ ID NO: 33), anti-sense, 5′-[…]-3′ (SEQ ID NO: 34) (NM 001082201.1); rabbit GAPDH sense, 5′-[…]-3′ (SEQ ID NO: 35), anti-sense, 5′-[…]-3′ (SEQ ID NO: 36) (accession number:NM 001082253.1). The cycle threshold (Ct) values of the PCR product and a GAPDH (Glyceraldehyde 3-phosphate dehydrogenase) control mRNA were used to calculate relative quantities of mRNA.
Similar to the approach in Example 1.2.1, the expression level of survivin mRNA in C2C12 cells was used as an indicator for the function of the 6-mer variants in Tables 3 to 5. Briefly, C2C12 cells in low serum media were treated with 20 μM the 6-mer variants for 6 h. […] The results also confirmed that alanine substation at the glutamic acid (E) residues would severely impair the 6-mer activity.
In general terms: In qPCR the cycle at which signal appears reflects the starting amount.

The test system of experiment [1] is Sprague-Dawley rats, retinal ischemia/reperfusion (I/R) injury. As to the kind of experiment: TUNEL staining of I/R-injured rat retina (20 h). The class given is in vivo. Conditions: for Number of TUNEL-positive cells in retina: subconjunctival injection 1 mM 4 h before I/R, 20 hours after I/R injury, Vehicle + I/R 27.2 ± 2.7; for I/R-induced retinal cell apoptosis (TUNEL staining), in words: subconjunctival injection prior to I/R, 20 h reperfusion. The protocol:
Experimental procedures were approved by the Mackay Memorial Hospital Review Board (Taiwan, R.O.C.). All surgeries were performed under aseptic conditions. Adult 10-week-old male Sprague-Dawley rats (initial body weight=312±11 g) were anesthetized by an intraperitoneal injection of xylazine (10 mg/kg). Peptide was dissolved in 0.85% normal saline to 1 mM and delivered by the subconjunctival injection of 100 μL peptide through a 31-Gneedle with a micro-syringe before the induction of I/R. Normal saline was as a vehicle control. Rat I/R was performed after peptide or vehicle injection for 4 h. Pupils were dilated with 0.5% tropicamide and 0.5% phenylephrine. Body temperature was maintained at 37° C. using a heating blanket After dilation of the pupil, the anterior chamber of the right eye was cannulated with a 27-gauge needle connected to a physiological saline reservoir. The intraocular pressure (IOP) was raised to 110 mmHg by keeping the reservoir at 150 cm above the eye, and retinal ischemia was confirmed by observing whitening of the iris and the loss of the red reflex of the retina. After 90 min of ischemia, the cannulating needle was withdrawn and the IOP was returned to normal pressure, resulting in recovery of the blood supply from the retinal artery and reperfusion injury induced. The reperfusion was evident by the return of the red reflex. Corneal analgesia was achieved using 1 or 2 drops of 0.4% oxybuprocaine hydrochloride, and Ofloxacin ophthalmic gel (0.3%) was applied topically to the eye before and after the procedure. Only the right eye was used in all experiments. A sham procedure was performed at left eye served as an intra-animal control.
After I/R for 20 h, rats (n=6 in each group) were euthanized by an overdose of pentobarbital. Enucleated eyeballs were fixed in 4% PFA for 24 h at 4° C. Fixed retinal tissues were embedded in paraffin. To identify apoptosis of retinal cells, 5 μm sections thick cut through the optic disc, de-paraffinized, rehydrated, incubatedwith 20 μg/mL proteinase K for 10 min, and immunofluorescence staining of apoptotic cells was performed using a terminal deoxynucleotidyl transferase(TdT)-mediated dUTP nick-end labeling (TUNEL)-based kit (Roche Molecular Biochemicals, Indianapolis, IN) according to the manufacturer's instructions. Nuclei were located by counterstaining with Hoechst 33258 for 7 min Sections were observed under an epifluorescence microscope (Zeiss Axioplan 2 imaging; Zeiss, Oberkochen, Germany) equipped with a charge-coupled device (CCD) camera (Zeiss AxioCam HRm, Zeiss) (×400, 6 fields/sample), and quantification was performed using Axiovert software (Zeiss AxioVision Release 4.8.2, Zeiss). Three sections per eye were averaged and the mean of six eyes was recorded as the representative value for each group.
In this example, the neuroprotective effect of the 6-mer variant peptides on neural retina cells and retinal capillary system was investigated using a rat model of I/R injury described in the “Material and Methods” section. Briefly, 6-mer variant peptide (1 mM, 120 μl) was injected into the subconjunctival space of Sprague-Dawley rats for 4 h before the induction of I/R. Then, I/R injury was induced in rat retinas by increasing the intraocular pressure (IOP) in the eye to 110 mmHg for 90 min, followed by 20 h of reperfusion. Subsequently, the level of retinal cell apoptosis was evaluated using TUNEL staining. In addition, the retinal morphology was analyzed with H&E staining 14 days after the I/R injury. Results are summarized in FIGS. 6 to 10, and Tables 6 to 9.

The next experiment concerns TNF-α mRNA. Briefly: Hyperosmotic stress-induced TNF-α gene expression in rabbit corneal epithelial cells (qPCR). As to conditions: 20 μM peptide 6 h, then hyperosmotic medium (463 mOsM) 3 h, solvent 12.8-fold. Type of experiment: cell-based. The protocol:
as §1
(§2) Limbal stem epithelial cells (LSEC) were isolated from 6-month-old New Zealand white rabbits and continuously cultivated for 14 days byDMEM/F-12basalmedium based cell-suspension culture to achieve corneal-liked epithelial cell differentiation as previously described (Ho et al., Stem Cells. 2013; 31:1775). […] After 3 h, quantitative real-time PCR was used to estimate HOP-induced Tumor necrosis factor (TNF)-α and nterleukin-1 beta (IL-1β) expressions. […]

A further experiment concerns IL-1β mRNA. As to the kind of experiment: Hyperosmotic stress-induced IL-1β gene expression in rabbit corneal epithelial cells (qPCR). Conditions: 20 μM peptide 6 h, then hyperosmotic medium (463 mOsM) 3 h, solvent 4.5-fold. The class given is cell-based. The method, then:
as §1, §2

The test system of experiment [2] is C57BL/6 mice, dry eye induced in controlled environment chamber (CEC). As to the kind of experiment: Dry eye animal model, corneal fluorescein staining. The class given is in vivo, mouse. As to conditions: mice 14 days in CEC, then treatment for 4 days. The method, then: Dry eyes were induced by placing mice in a controlled environment chamber (CEC) for 14 days in accordance with procedures previously described by Barabino et al (IVOS (2005) 46(8), 2766-2771). Mice placed in the CEC were exposed to a condition, in which relative humidity (RH) was maintained at <25%, temperature at 20-22° C., and airflow at about 15 L/min, for 12 hours per day. Control mice were kept in a normal environment (RH>50%, no air flow, temperature of 20-22° C.) for the same duration.
A common artificial tear formulation, 1% carboxymethylcelllulose (CMC) dissolved in balanced salt solution (BSS) was used as the peptide vehicle. Peptide (100 μM, about 0.7 μg peptide in 10 μl eye drop used for treating one eye) or 1% CMC vehicle was topically administered to eyes three times a day. To test whether the present synthetic peptide could exert any therapeutic action on dry eyes, mice were housed at CEC for 14 days without topical treatment, and then were treated with the present peptide for 4 days.
Animals were anesthetized by an intraperitoneal injection of a mixture of zoletil (6 mg/kg) and xylazine (3 mg/kg). Corneal epithelial injury was determined by staining with topical fluorescein (Fluor-I-Strip, Ayerst Laboratories, Philadelphia, PA). Corneal fluorescein staining was examined with a slit-lamp biomicroscope under cobalt blue light and photographed with a digital camera. Dye staining of the cornea was scored in a blinded manner as follows: score 0 for no punctuate staining; score 1 when less than one third of the cornea was stained; score 2 when two thirds or less was stained; and score 3 when more than two thirds was stained (Horwath-Winter J 2013).
Briefly, mice were housed at controlled environment chamber (CEC) for 14 days (set as Day 0) to induce corneal surface disruption. Corneal fluorescein staining was used to estimate the corneal surface injury and the animal with a staining score of 2 (after mice placed at CEC for 14 days) was subjected to peptide treatment. The 6-mer variant peptide formulation for the treatment of DED was described in Methods. […]

Turning to “NH2-Ala-Leu-Gly-Ala-Glu-Gln-COOH (ALGAEQ; not fully specified (N-terminus, C-terminus); printed as NH2-Ala-Leu-Gly-Ala-Glu-Gln-COOH) [6-mer Sa]”, the “survivin mRNA induction compared to solvent control” value with survivin mRNA turned out to be 1.7 fold. For the same substance, in experiment [1], the “Number of TUNEL-positive cells in retina” value is 12.6 ± 1.1 /200 μm and the “I/R-induced retinal cell apoptosis (TUNEL staining), in words” value (from here on “I/R-induced retinal cell apoptosis”) is “reduced the retinal cell apoptosis induced by I/R”. Also, the “mRNA expression of TNF-α, in words” value in the experiment with TNF-α mRNA was “apparently repressed the mRNA expression of TNF-α and IL-1β”. Further, the “mRNA expression of IL-1β, in words” value in the experiment with IL-1β mRNA was “apparently repressed the mRNA expression of TNF-α and IL-1β”.
Regarding “NH2-Ser-Ile-Gly-Ala-Glu-Gln-COOH (SIGAEQ; not fully specified (N-terminus, C-terminus); printed as NH2-Ser-Ile-Gly-Ala-Glu-Gln-COOH) [6-mer Li]”, the “survivin mRNA induction compared to solvent control” value in the experiment on survivin mRNA is 2.1 fold. In experiment [1], the “Number of TUNEL-positive cells in retina” value was 9.8 ± 1.4 /200 μm and the “I/R-induced retinal cell apoptosis” value was “reduced the retinal cell apoptosis induced by I/R”.
“NH2-Ser-Leu-Gly-(D-Ala)-Glu-Gln-COOH (SLGAEQ; HELM PEPTIDE1{S.L.G.[dA].E.Q}$$$$V2.0; SMILES CC(C)C[C@H](NC(=O)[C@@H](N)CO)C(=O)NCC(=O)N[C@H](C)C(=O)N[C@@H](CCC(=O)O)C(=O)N[C@@H](CCC(N)=O)C(=O)O) [6-mer dA]”: in the experiment on survivin mRNA, the “survivin mRNA induction, in words” value is listed as “hamper the survivin gene induction activity significantly”. Further, the “therapeutic effect on corneal fluorescein staining, in words” value in experiment [2] is “had no therapeutic effect”.
Consider “NH2-Ser-Leu-Gly-Ala-Glu-Asn-COOH (SLGAEN; not fully specified (N-terminus, C-terminus); printed as NH2-Ser-Leu-Gly-Ala-Glu-Asn-COOH) [6-mer Qn]”, for which the “survivin mRNA induction compared to solvent control” value in the experiment on survivin mRNA stood at 2.1 fold. Also, in experiment [1], the “Number of TUNEL-positive cells in retina” value is 12.5 ± 0.89 /200 μm and the “I/R-induced retinal cell apoptosis” value is reported as “reduced the retinal cell apoptosis induced by I/R”.
On to “NH2-Ser-Leu-Val-Ala-Glu-Gln-COOH (SLVAEQ; not fully specified (N-terminus, C-terminus); printed as NH2-Ser-Leu-Val-Ala-Glu-Gln-COOH) [6-mer Gv]”, for which the “survivin mRNA induction compared to solvent control” value with survivin mRNA is recorded as 2.3 fold. Further, in experiment [1], the “Number of TUNEL-positive cells in retina” value is 10.4 ± 1.4 /200 μm and the “I/R-induced retinal cell apoptosis” value is reported as “reduced the retinal cell apoptosis induced by I/R”. In the experiment on TNF-α mRNA, the “mRNA expression of TNF-α, in words” value is “apparently repressed the mRNA expression of TNF-α and IL-1β”. The “mRNA expression of IL-1β, in words” value in the experiment on IL-1β mRNA was “apparently repressed the mRNA expression of TNF-α and IL-1β”.
As for “NH2-The-Leu-Gly-Ala-Glu-Gln-COOH (TLGAEQ; not fully specified (N-terminus, C-terminus); printed as NH2-The-Leu-Gly-Ala-Glu-Gln-COOH) [6-mer St]”, in the experiment with survivin mRNA, the “survivin mRNA induction, in words” value was “severely impaired the survivin mRNA induction”. Further, in experiment [1], the “Number of TUNEL-positive cells in retina” value is listed as 21.8 ± 1.8 /200 μm and the “I/R-induced retinal cell apoptosis” value is on record as “had no such effect”. Further, the “therapeutic effect on corneal fluorescein staining, in words” value in experiment [2] is “had no therapeutic effect”.
